According to US20060127957A1, “Novel biologicalcancer marker and methods for determining the cancerous or non-cancerous phenotype of cells” (priority 2002, published 2006):

How the values were obtained:
[1] = tested on: p53-responsive element of mdm2; assay: p53 transactivation assay (dual-luciferase, mdm2 promoter reporter) in MEF; assay type: cell-based, mouse; settings: MEF treated for 10 hours, TNFα 100 ng.ml^−1, adriamycin 5 μg.ml^−1, etoposide 25 μg.ml^−1; for activation of the p53-responsive element (luciferase activity): luciferase assayed 24 hours after transfection
Experimental: A: MEF were transfected with the firefly luciferase gene under the control of the mdm2 promoter and treated for 10 hours either with TNFa adriamycin, or etoposide. The luciferase activity was assayed 24 hours after transfection. The p53 responsive element construct was transfected in combination with either p53wt, as a positive control, or with the dominant negative mutants p53-H273 or p53-H175. The luciferase activity was assayed 24 hours later. The results are shown as mean+/−S.D. of four measurements.
(§1) Human wild type p53 cDNA or its mutated forms, H175 and H273 were cloned into the BamH1 site of pCDNA3 vector (Invitrogen), then transferred in pEGFPC1 (Clontech) to give GFP-tagged proteins. Constructs expressing MYC epitope-tagged mutant Rac1, Cdc42 and RhoA proteins and their various mutants were kindly provided by P. Chavrier (Dutartre et al., 1996). The GFP fusion proteins were cloned in the pEGFP-C1 vector (Gauthier-Rouviere et al., 1998), (Ory et al., 2000), (Roux et al., 1997). The pcDNA3myc-NWASP containing the Cdc42-interacting domain of WASP was previously described in (Philips et al., 2000). The pGL2B-mdm2 plasmid in which the reporter gene luciferase is controlled by the p53-responsive element of mdm2 (Barak et al., 1994) was a kind gift of E. Yonish-Rouach. pTKRL plasmid was from Promega. TNFα, adriamycin and etoposide (Sigma) were used in all experiments at the concentration of 100 ng.ml^−1, 5 μg.ml^−1 and 25 μg.ml^−1, respectively.
p53 transactivation was measured using the dual-luciferase assay system from Promega. Cells (5×10^4) were seeded onto twelve-well plates and transfected 18 hours later in OptiMEM containing 0.440 μg of DNA (0.2 μg of appropriate GTPase plasmids, 0.2 μg of pGL2B-mdm2-luciferase plasmid and 0.04 μg of pTKRL plasmid) using 0.33 μl of Lipofectamine (Gibco-BRL) for 4 h. Cells were then left for 24 h in DMEM supplemented with 10% FCS, harvested in […] of Passive Lysis Buffer (PLB, Promega), and luciferase activity was measured following the Dual-luciferase™ Reporter Assay Protocol as recommended by Promega, using a luminometer fitted with two injectors (Berthold).
Cdc42-dependent filopodia formation was induced by bradykinin (Kozma et al., 1995; Nobes and Hall, 1995a). p53 was activated either by Tumor Necrosis Factor-a (TNFa), or using two cytotoxic drugs adriamycin and etoposide, previously shown to induce accumulation of p53 in MEF (Klefstrom et al., 1997; Lowe et al., 1993). […] Finally, we monitored the effect of p53 upregulation by TNFα, etoposide and adriamycin on Cdc42-dependent filopodia formation by bradykinin.

MEF = assay: Filopodia formation in MEF (F-actin staining, cells with at least 5 filopodia scored positive); assay type: cell-based, mouse; settings: pretreated for 10 hours (TNFα 100 ng.ml^−1, adriamycin 5 μg.ml^−1, etoposide 25 μg.ml^−1), followed by 12 minutes bradykinin; bradykinin alone 62%
Text: as §1
Cdc42-dependent filopodia formation was induced by bradykinin (Kozma et al., 1995; Nobes and Hall, 1995a). p53 was activated either by Tumor Necrosis Factor-a (TNFa), or using two cytotoxic drugs adriamycin and etoposide, previously shown to induce accumulation of p53 in MEF (Klefstrom et al., 1997; Lowe et al., 1993).

Row | activation of the p53-responsive element (luciferase activity) [1] | Compound | activation of the p53-responsive element as % of the value obtained with the positive control (p53 wt) [1] [%] | MEF having filopodia (bradykinin-mediated filopodia formation after pretreatment) (MEF) [%]
1 | twenty eight-fold | Tumor Necrosis Factor-a [TNFα] | 36 | 28
2 | twenty four-fold | COc1cc([C@@H]2c3cc4c(cc3[C@@H](O[C@@H]3O[C@@H]5CO[C@@H](C)O[C@H]5[C@H](O)[C@H]3O)[C@H]3COC(=O)[C@H]23)OCO4)cc(OC)c1O [etoposide] | 30 | 20

Row | Compound | activation of the p53-responsive element (luciferase activity) [1] | activation of the p53-responsive element as % of the value obtained with the positive control (p53 wt) [1] [%] | MEF having filopodia (bradykinin-mediated filopodia formation after pretreatment) (MEF) [%]
3 | COc1cccc2c1C(=O)c1c(O)c3c(c(O)c1C2=O)C[C@@](O)(C(=O)CO)C[C@@H]3O[C@H]1C[C@H](N)[C@H](O)[C@H](C)O1 [adriamycin] | nineteen-fold | 23 | 16
